From patent US7294625B2, “Pyrazole compounds” (Ube Industries, Ltd., priority 2002, dated 2007)

Tests used:
[1] = tested on: cytokine (IL-1β and TNF-α) induced IL-6 production; assay: Inhibition of IL-6 production in rat (in vivo); settings: LEW rats, 3 mg/Kg oral, 1 hour before IL-1β/TNF-α i.v., serum IL-6 two hours later
Method: Test Example 3 Inhibition of IL-6 Production in Rat (In Vivo)
A cytokine mixed solution of IL-1β and TNF-α was intravenously injected to rats to induce production of IL-6. A mixed solution of IL-1β (available from R&D) (4 μg/ml) and TNF-α (available from R&D) (2 μg/ml) dissolved in PBS was administered to tail vein of LEW series rats (female, body weight: about 140 to 170 g, available from Charles River Japan, Inc.) fasted overnight with a ratio of 1 ml/kg of the body weight. Two hours later, blood was collected from the neck vein under ether anesthesia. The collected blood was centrifuged under the conditions of 20° C. and 10,000×g to separate serum. IL-6 concentration in the serum was measured by using an enzyme-linked immunosorbent assay (ELISA) kit (IL-6 ELISA KIT, available from R&D).
The test compound or the vehicle was orally administered with a dose of 10 ml/kg of the body weight before 1 hour of the injection of the cytokine mixed solution. The control group to which the vehicle was administered and the group of the compound to be tested were each 5 rats per group. An inhibitory ratio of the group of the compound to be tested based on control group was calculated.

[2] = molecular target: T1, p38MAP kinase (Homo sapiens, UniProt Q16539); assay: Enzyme inhibitory test against p38MAP kinase; format: biochemical; settings: active type p38MAP kinase, EGFR peptide substrate, [γ-32P]ATP, 30° C. 30 minutes; read-out: p38MAP kinase inhibition IC50 value
T1 construct: purchased Stratagene (p38MAP kinase); Upstate (SKK/MKK6) #206145 (p38MAP kinase); #14-225 or #14-303 (SKK/MKK6)
T1 sequence (Q16539 whole entry): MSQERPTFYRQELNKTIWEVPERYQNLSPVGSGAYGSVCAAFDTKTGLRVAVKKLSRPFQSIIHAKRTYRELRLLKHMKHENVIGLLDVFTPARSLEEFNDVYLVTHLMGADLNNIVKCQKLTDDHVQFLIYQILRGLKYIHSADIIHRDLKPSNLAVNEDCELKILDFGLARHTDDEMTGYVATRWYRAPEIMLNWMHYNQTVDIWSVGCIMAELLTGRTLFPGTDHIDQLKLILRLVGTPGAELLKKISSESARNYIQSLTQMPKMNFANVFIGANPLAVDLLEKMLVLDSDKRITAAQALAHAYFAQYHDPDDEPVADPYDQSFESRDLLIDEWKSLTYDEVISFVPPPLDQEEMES
Method: Test Example 1 Enzyme Inhibitory Test Against p38MAP Kinase
(1) Preparatoin of Active Type p38MAP Kinase
An active type p38MAP kinase was prepared by incubation in a reaction solution (25 mM Tris-HCl pH 7.5, 5 mM β-glycerolphosphate, 2 mM DTT, 0.1 mM […], 10 mM MgCl2, 1 mM ATP) containing p38MAP kinase (Stratagene, #206145) and SKK/MKK6 (Upstate, #14-225 or #14-303) at 30° C. for 1 to 3 hours. This enzyme solution was diluted 5 to 10-fold with Stock Buffer (50 mM Tris-HCl pH 7.5, 0.1 mM EGTA, 0.2 mM Orthovanadate, 0.1% 2-ME, 10% glycerol, 0.03% Brij-35, 0.5 μM Microcystin), and preserved under freezing (−80° C.).
(2) Measurement of Inhibitory Activity of p38MAP Kinase
To 34 μL of a reaction solution (25 mM HEPES, pH 7.5, 10 mM Magnesium acetate) containing the active type p38MAP kinase prepared as mentioned above and a substrate (final concentration: […] EGFR; […]) was added 1 μL of DMSO, or a compound to be tested and dissolved in DMSO, then, the mixture was subjected to preincubation at 4° C. for 30 minutes. A reaction was started by adding 5 μL of an ATP solution (400 μM ATP, 1 μCi/μL [γ-^32P]ATP), and reacted at 30° C. for 30 minutes, and then, the reaction was stopped by adding 5 μL of 250 mM H3PO4. 25 μL of the reaction solution was placed on chromatography paper (Whatman, #P81), dried for about 2 minutes, and washed with 75 mM H3PO4. Water was removed by using 95% ethanol, it was transferred to a bial containing liquid scintillation cocktail (available from Nacalai Tesque), and radioactivity was measured. A concentration (IC50 value) of a compound to be tested necessary for inhibiting 50% of phosphrylation (^32P) of the substrate by the enzyme was calculated as compared to that non-treated by the compound to be tested by XL-fit (available from IDBS).

[3] = tested on: LPS-induced TNF-α production in human PBMC; assay: Inhibition of TNF-α production in human PBMC (in vitro); format: cell-based; settings: LPS 10 μg/ml, 18 hours, TNF-α ELISA, read-out: Inhibitory effect on LPS-induced TNF-α production in human PBMC IC50 value
Method: Test Example 2 Inhibition of TNF-α Production in Human PBMC (In Vitro)
Test was carried out according to the method of Welker et al. (Int. Arch. Allergy Immunol., 109, 110-115 (1996).
Heparin-added blood collected from healthy volunteer with consent was underlayed with a specific gravity-separating solution (Lymphoprep; available from Daiichi Pure Chemicals Co., Ltd.), subjected to centrifugation (800×g, 25 minutes), and a mononuclear cell layer was recovered. The obtained mononuclear cells (human PBMC) were washed twice with PBS (available from SIGMA), and resuspended in 1% FCS-containing RPMI aqueous solution (available from GIBCO) so that the cells became 5×10^6 cells/mL. The thus obtained cell suspension was diluted 10-fold with 1% FCS-containing RPMI medium, DMSO (or the compound to be tested) with a final concentration of 0.5% was added thereto, and cultured at 37° C. in 5% CO2 for 1 hour. After that, LPS (derived from E. Coli 055:5B, available from SIGMA) solution prepared by PBS was added so that the final concentration thereof being 10 μg/ml, and cultivation was carried out for further 18 hours. After the cultivation, culture medium was subjected to centrifugation (800×g, 10 minutes), and a concentration of TNF-α produced in the supernatant was measured by an enzyme-linked immunosorbent assay (ELISA) kit (TNF-α ELISA Kit, available from R&D). The concentration (IC50 value) of the test compound for inhibiting 50% of TNF-α production was calcualted by using XL-fit (available from IDBS).

Row | Structure (SMILES) | IC50 [2] [nM] | IC50 [3] [nM] | other results
1 | O=C1CCC(n2cc(-c3ccnc(NCC(F)(F)F)c3)c(-c3ccc(F)cc3)n2)=NN1 [Example 56, 3-(4-Fluorophenyl)-1(1,4,5,6-tetrahydro-6-oxopyridazin-3-yl)-4-[2-(2,2,2-trifluoroethyl)aminopyridin-4-yl]-1H-pyrazole] |  |  | Rat cytokine induced IL-6 production inhibiting ratio (%) @3 mg/Kg [1]: 85%
2 | Nc1cc(-c2cn(-c3ccc(=O)[nH]n3)nc2-c2ccccc2)ccn1 [Example 20, 4-(2-Aminopyridin-4-yl)-1-(1,6-dihydro-6-oxopyridazin-3-yl)-3-phenyl-1H-pyrazole] |  |  | Rat cytokine induced IL-6 production inhibiting ratio (%) @3 mg/Kg [1]: 78%
3 | O=C1CCC(n2cc(-c3ccnc(NC(=O)C4CC4)c3)c(-c3ccccc3F)n2)=NN1 [Example 65, 4-(2-Cyclopropylcarbonylaminopyridin-4-yl)-3-(2-fluorophenyl)-1-(1,4,5,6-tetrahydro-6-oxopyridazin-3-yl)-1H-pyrazole] |  | 15 | 
4 | O=C1CCC(n2cc(-c3ccnc(NCC(F)(F)F)c3)c(-c3ccccc3F)n2)=NN1 [Example 61, 3-(2-Fluorophenyl)-1-(1,4,5,6-tetrahydro-6-oxopyridazin-3-yl)-4-[2-(2,2,2-trifluoroethyl)aminopyridin-4-yl]-1H-pyrazole] |  | 4 | 
5 | CC(=O)Nc1cc(-c2cn(-c3ccc(=O)[nH]n3)nc2-c2ccccc2F)ccn1 [Example 35, 4-(2-Acetylaminopyridin-4-yl)-3-(2-fluorophenyl)-1-(1,6-dihydro-6-oxopyridazin-3-yl)-1H-pyrazole] |  | 6 | 
6 | Nc1cc(-c2cn(-c3ccc4nncn4n3)nc2-c2ccc(F)c(F)c2)ccn1 [Example 40, 4-(2-Aminopyridin-4-yl)-3-(3,4-difluorophenyl)-1-([1,2,4]triazolo[4,3-b]pyridazin-6-yl)-1H-pyrazole] | 8.7 |  | 
7 | CC(Nc1cc(-c2cn(-c3ccc4nncn4n3)nc2-c2ccc(F)cc2)ccn1)c1ccccc1 (centres unmarked) [Example 18, 3-(4-Fluorophenyl)-4-[2-(1-phenethylamino)pyridin-4-yl]-1-([1,2,4]triazolo[4,3-b]pyridazin-6-yl)-1H-pyrazole] | 3.7 |  | 
8 | Nc1cc(-c2cn(-c3ccc(=O)[nH]n3)nc2-c2cccc(F)c2)ccn1 [Example 22, 4-(2-Aminopyridin-4-yl)-3-(3-fluorophenyl)-1-(1,6-dihydro-6-oxopyridazin-3-yl)-1H-pyrazole] | 6.6 |  | 
9 | Nc1cc(-c2cn(C3=NNC(=O)CC3)nc2-c2ccccc2F)ccn1 [Example 55, 4-(2-Aminopyridin-4-yl)-3-(2-fluorophenyl)-1-(1,4,5,6-tetrahydro-6-oxopyridazin-3-yl)-1H-pyrazole] |  | 36 | 
10 | O=c1ccc(-n2cc(-c3ccnc(NCC(F)(F)F)c3)c(-c3ccccc3F)n2)n[nH]1 [Example 34, 3-(2-Fluorophenyl)-1-(1,6-dihydro-6-oxopyridazin-3-yl)-4-[2-(2,2,2-trifluoroethyl)aminopyridin-4-yl]-1H-pyrazole] | 0.2 |  | 
11 | O=c1ccc(-n2cc(-c3ccnc(NCC(F)(F)F)c3)c(-c3ccc(F)cc3)n2)n[nH]1 [Example 28, 3-(4-fluorophenyl)-1-(1,6-dihydro-6-oxopyridazin-3-yl)-4-[2-(2,2,2-trifluoroethyl)aminopyridin-4-yl]-1H-pyrazole] |  | 7 | 
12 | Nc1cc(-c2cn(-c3ccc(=O)[nH]n3)nc2-c2cccc(C(F)(F)F)c2)ccn1 [Example 25, 4-(2-Aminopyridin-4-yl)-1-(1,6-dihydro-6-oxopyridazin-3-yl)-3-(3-trifluoromethylphenyl)-1H-pyrazole] | 5.9 |  | 
13 | O=C(Nc1cc(-c2cn(-c3ccc4nncn4n3)nc2-c2ccc(F)cc2)ccn1)C1CC1 [Example 43, 4-(2-Cyclopropylcarbonylaminopyridin-4-yl)-3-(4-fluorophenyl)-1-([1,2,4]triazolo[4,3-b]pyridazin-6-yl)-1H-pyrazole] |  | 14 | 

More lines, main results first:

Row | IC50 [2] [nM] | Structure (SMILES) | IC50 [3] [nM] | other results
14 | 3.4 | Cc1cc(-n2cc(-c3ccnc(N)c3)c(-c3ccc(F)cc3)n2)n[nH]c1=O [Example 32, 4-(2-Aminopyridin-4-yl)-3-(4-fluorophenyl)-1-(1,6-dihydro-5-methyl-6-oxopyridazin-3-yl)-1H-pyrazole] |  | 
15 | 8.9 | O=c1ccc(-n2cc(-c3ccncc3)c(-c3ccc(F)cc3)n2)n[nH]1 [Example 1, 3-(4-Fluorophenyl)-1-(1,6-dihydro-6-oxopyridazin-3-yl)-4-(pyridin-4-yl)-1H-pyrazole] |  | 
16 | 2.1 | CC(=O)Nc1cc(-c2cn(C3=NNC(=O)CC3)nc2-c2ccc(F)cc2)ccn1 [Example 57, 4-(2-Acetylaminopyridin-4-yl)-3-(4-fluorophenyl)-1-(1,4,5,6-tetrahydro-6-oxopyridazin-3-yl)-1H-pyrazole] |  | 
17 | 1.3 | CCNc1cc(-c2cn(-c3ccc(=O)[nH]n3)nc2-c2ccc(F)cc2)ccn1 [Example 27, 4-(2-Ethylaminopyridin-4-yl)-3-(4-fluorophenyl)-1-(1,6-dihydro-6-oxopyridazin-3-yl)-1H-pyrazole] |  | 
18 | 4.9 | O=C(Nc1cc(-c2cn(-c3ccc4nncn4n3)nc2-c2ccc(F)cc2)ccn1)C1CCCC1 [Example 45, 4-(2-Cyclopentylcarbonylaminopyridin-4-yl)-3-(4-fluorophenyl)-1-([1,2,4]triazolo[4,3-b]pyridazin-6-yl)-1H-pyrazole] |  | 
19 | 1.3 | CC(=O)Nc1cc(-c2cn(C3=NNC(=O)CC3)nc2-c2ccccc2F)ccn1 [Example 62, 4-(2-Acetylaminopyridin-4-yl)-3-(2-fluorophenyl)-1-(1,4,5,6-tetrahydro-6-oxopyridazin-3-yl)-1H-pyrazole] |  | 
20 | 5.4 | CC(=O)Nc1cc(-c2cn(-c3ccc4nncn4n3)nc2-c2ccc(F)cc2)ccn1 [Example 9, 4-(2-Acetylaminopyridin-4-yl)-3-(4-fluorophenyl)-1-([1,2,4]triazolo[4,3-b]pyridazin-6-yl)-1H-pyrazole] |  | 
21 | 6.1 | COC(=O)Nc1cc(-c2cn(-c3ccc4nncn4n3)nc2-c2ccc(F)cc2)ccn1 [Example 11, 3-(4-Fluorophenyl)-4-(2-methoxycarbonylaminopyridin-4-yl)-1-([1,2,4]triazolo[4,3-b]pyridazin-6-yl)-1H-pyrazole] |  | 
22 | 2.5 | Nc1cc(-c2cn(-c3cc(N)c(=O)[nH]n3)nc2-c2ccc(F)cc2)ccn1 [Example 4, 1-(5-Amino-1,6-dihydro-6-oxopyridazin-3-yl)-4-(2-aminopyridin-4-yl)-3-(4-fluorophenyl)-1H-pyrazole] | 28 | 
